13 compounds from ChEMBL document CHEMBL5579798, “Discovery of novel oridonin sulfamide derivatives as potent NLRP3 inhibitors by a visible-light photocatalysis-enabled peripheral editing” (Bioorg Med Chem Lett, 2024) can be followed below.

The data set is described as follows: Cytotoxicity against human THP-1 cells by CCK-8 method. Format: toxicity, cell-based.

Structures are written as SMILES.

Usually CC50 stands for the concentration at which the toxic effect on the cells reaches its halfway point. High values mean lower toxicity to the cells, low ones greater toxicity to the cells. Turning to `COc1ccc(S(=O)(=O)NCC[C@@H]2C(=O)[C@]34[C@H](O)[C@H]2CC[C@H]3[C@@]23CO[C@]4(O)[C@@H](O)[C@@H]2C(C)(C)CC[C@@H]3O)cc1`, the CC50 was more than 100 µM. Regarding `CC1(C)CC[C@H](O)[C@]23CO[C@](O)([C@@H](O)[C@H]12)[C@]12C(=O)[C@@H](CCNS(=O)(=O)c4ccsc4)[C@H](CC[C@@H]31)[C@H]2O`, the CC50 is more than 100 µM. In turn, `CC1(C)CC[C@H](O)[C@]23CO[C@](O)([C@@H](O)[C@H]12)[C@]12C(=O)[C@@H](CCNS(=O)(=O)/C=C/c4ccccc4)[C@H](CC[C@@H]31)[C@H]2O` returned a CC50 of more than 100 µM. Under `CC1(C)CC[C@H](O)[C@]23CO[C@](O)([C@@H](O)[C@H]12)[C@]12C(=O)[C@@H](CCNS(=O)(=O)c4ccc(C(F)(F)F)cc4)[C@H](CC[C@@H]31)[C@H]2O` stands more than 100 µM. Under `CC1(C)CC[C@H](O)[C@]23CO[C@](O)([C@@H](O)[C@H]12)[C@]12C(=O)[C@@H](CCNS(=O)(=O)c4ccc(C#N)cc4)[C@H](CC[C@@H]31)[C@H]2O` stands more than 100 µM; under `CC(C)(C)OC(=O)NCC[C@@H]1C(=O)[C@]23[C@H](O)[C@H]1CC[C@H]2[C@@]12CO[C@]3(O)[C@@H](O)[C@@H]1C(C)(C)CC[C@@H]2O`, more than 100 µM. In the case of `CC1(C)CC[C@H](O)[C@]23CO[C@](O)([C@@H](O)[C@H]12)[C@]12C(=O)[C@@H](CCNS(=O)(=O)c4ccc(F)cc4)[C@H](CC[C@@H]31)[C@H]2O` it was more than 100 µM; in that of `CC1(C)CC[C@H](O)[C@]23CO[C@](O)([C@@H](O)[C@H]12)[C@]12C(=O)[C@@H](CCNS(=O)(=O)c4ccccc4)[C@H](CC[C@@H]31)[C@H]2O`, more than 100 µM. In turn, `CC1(C)CC[C@H](O)[C@]23CO[C@](O)([C@@H](O)[C@H]12)[C@]12C(=O)[C@@H](CCNS(=O)(=O)c4cccnc4)[C@H](CC[C@@H]31)[C@H]2O` displayed a CC50 of more than 100 µM. In the case of `CC1(C)CC[C@H](O)[C@]23CO[C@](O)([C@@H](O)[C@H]12)[C@]12C(=O)[C@@H](CCN)[C@H](CC[C@@H]31)[C@H]2O` it was more than 100 µM. `Cn1ccc(S(=O)(=O)NCC[C@@H]2C(=O)[C@]34[C@H](O)[C@H]2CC[C@H]3[C@@]23CO[C@]4(O)[C@@H](O)[C@@H]2C(C)(C)CC[C@@H]3O)n1` showed a CC50 of more than 100 µM.

`CN(C)c1cccc2c(S(=O)(=O)NCC[C@@H]3C(=O)[C@]45[C@H](O)[C@H]3CC[C@H]4[C@@]34CO[C@]5(O)[C@@H](O)[C@@H]3C(C)(C)CC[C@@H]4O)cccc12` returned a CC50 of 96.8 µM. `C=C1C(=O)[C@]23[C@H](O)[C@H]1CC[C@H]2[C@@]12CO[C@]3(O)[C@@H](O)[C@@H]1C(C)(C)CC[C@@H]2O` [ORIDONIN] registered a CC50 of 19.8 µM.
